Assay results taken from patent publication US20260144766A1, “USE OF CANNABINOID 1 RECEPTOR AGONIST ARACHIDONOYL CYCLOPROPYLAMIDE (ACPA) IN NON SMALL CELL LUNG CANCER” (HACETTEPE UNIVERSITESI, priority 2019, published 2026).
Entries after “also recorded” stand apart in the source; their conditions may differ.

Legend:
[1] = system: H1299 cells; assay: Real time impedance-based proliferation analysis, H1299; assay type: cell-based
Protocol: (§1) 1.3. Evaluation of the Effect of ACPA against Cancer Cell Proliferation by Real Time Impedance-Based Proliferation Analysis
(§2) ACPA has been applied between this dose range (10^−9, 10^−10, 10^−11 and 10^−12 M) during the real time impedance-based proliferation analysis. After the cells are seeded when the cell indices reach 1.0, ACPA dose range has been applied. The graph has been normalized from the point where the cell indices reached 1.0 and ACPA application has been carried out at different doses. […] After ACPA has been added at the determined dose range, it has led to reduction in the proliferation of H1299 cells as of the 66th hour.

[2] = system: H838 cells; assay: Real time impedance-based proliferation analysis, H838; assay type: cell-based
Protocol: as §1, §2

[3] = system: A549, H1299, H358 and H838 cells; assay: Efficient dose range over the 4 non-small cell lung cancer lines (WST-1 and real time impedance-based analysis); details: 4 cell lines A549, H1299, H358 and H838
Protocol: as §2
Within the scope of the research, the efficient dose and time of the CB1 receptor agonist ACPA has been calculated using the WST-1 and real time impedance-based proliferation analysis method on the examined 4 different non-small cell lung cancer lines.

[4] = system: H358 cells; assay: WST-1 proliferation analysis, H358; assay type: cell-based; details: p<0.05
From the text: (§3) 1.2. Evaluation of the Dose- and Time-Dependent Effect of ACPA to Cancer Cell Proliferation by WST-1 Technique

[5] = system: H838 cells; assay: WST-1 proliferation analysis, H838; assay type: cell-based; details: p<0.05
From the text: as §3

[6] = system: H1299 cells; assay: WST-1 proliferation analysis, H1299; assay type: cell-based; details: all doses, days 1, 2 and 3, p<0.05
From the text: as §3

[7] = system: A549 cells; assay: Real time impedance-based proliferation analysis, A549; assay type: cell-based
Protocol: as §1, §2

[8] = system: H358 cells; assay: Real time impedance-based proliferation analysis, H358; assay type: cell-based
[9] = system: A549 cells; assay: WST-1 proliferation analysis, A549; assay type: cell-based
From the text: as §3

[10] = dose ranges applied, depending on time
[11] = normalized cell index vs log ACPA concentration, read-out: antiproliferative IC50

## CCCCC/C=C\C/C=C\C/C=C\C/C=C\CCCC(=O)NC1CC1 [ACPA, Arachidonoyl cyclopropylamide]
[1]; 1.39×10^−12 M ACPA (free or released from nanoparticles), 48 and 72nd hours, p<0.05
  proliferation in comparison to the control group (impedance): significant reduction has been observed
[1]; 10^−11 M, as of the 66th hour, p<0.05
  proliferation (normalized cell index): significantly reduced the proliferation of cells
[1]; 10^−12, 10^−10 and 10^−9 M, after the 86th hour, p<0.05
  proliferation (normalized cell index): significantly reduced the proliferation of cells
[1]; WST-1 and impedance analysis
  efficient dose, effect seen on the 48th hour: 1.39 pM
[1]; [10]
  proliferation (normalized cell index): reduced the proliferation
[1]; [11]
  IC50: 1.39 pM
[2]; 1.39×10^−12 M ACPA, 190th hour, p<0.05
  proliferation in comparison to the control group (impedance): statistically significant reduction
[2]; ACPA doses, following the 30th hour, p<0.05
  proliferation vs control group (normalized cell index): significantly reduced the proliferation of cells
[2]; WST-1 and impedance analysis
  efficient dose, effect seen on the 48th hour: 34.7 pM
[2]; [10]
  proliferation (normalized cell index): reduced the proliferation
[2]; [11]
  IC50: 0.0347 nM
[3]
  dose range found to be efficient in WST-1 analysis: 10^−12-10^−9 M
[4]; 2nd day, all doses
  antiproliferative effect (WST-1): Antiproliferative effect was seen
[4]; day 1, doses 10^−10, 10^−8, 10^−7 and 10^−6 M
  antiproliferative effect (WST-1): antiproliferative effect of ACPA was observed
[5]; 2nd day, 10^−9 M
  proliferation vs control group (WST-1): antiproliferative effect; also recorded: reduced the proliferation of H838 cells statistically significantly
[5]; 3rd day, 10^−9 and 10^−12 M
  proliferation vs control group (WST-1): antiproliferative effect; also recorded: reduced the proliferation of H838 cells statistically significantly
[6]
  antiproliferative effect (WST-1): significant antiproliferative effect; also recorded: Antiproliferative effect has been observed
[7]; ACPA 10^−9 to 10^−12 M
  proliferation (normalized cell index): not exhibited a significant change
[7]; WST-1 and impedance analysis
  efficient dose, effect seen on the 48th hour: 1.39 pM
[7]; [11]
  IC50: 1.39 pM
[8]; WST-1 and impedance analysis
  efficient dose, effect seen on the 48th hour: 1.39 pM
[8]; [10]
  proliferation (normalized cell index): reduced the proliferation
[8]; [11]
  IC50: 1.38 pM
[9]; day 1, doses 10^−12, 10^−11, 10^−10 and 10^−9 M, p<0.05
  proliferation vs control group (WST-1 absorbance): statistically significantly reduced
[9]; second and 3rd days, doses applied
  antiproliferative effect (WST-1): antiproliferative effect was not observed
